{"source": "patent US20110033904A1", "about": "“METHOD FOR PREPARING ORTHODIHYDROXYISOFLAVONES USING A BIOTRANSFORMATION SYSTEM” (priority 2008, published 2011)", "system": "C57BL/6 mouse melanocyte cells (MeI-Ab cells)", "test": "Melanin production inhibitory effects using MeI-Ab cells (Dooley's method)", "assay_type": "cell-based", "settings": "substances added during 3 days from day 2 of culture, absorbance at 400 nm, hydroquinone 100 ppm", "method": "The melanin production inhibitory effects of the ODIs obtained in Examples 1 and 2 were measured using MeI-Ab cells.\nFirst, C57BL/6 mouse melanocyte cells (MeI-Ab cells) (Dooley, T. P. et al, Skin pharmacol, 7, pp 188-200) were cultured in a DMEM (Dulbeccos modified Eagles media) medium containing 10% fetal bovine serum, 100 nM 2-O-tetradecanoylphorbol-13-acetate and 1 nM cholera toxin in conditions of 37° C. and 5% CO2. The cultured MeI-Ab cells were detached by 0.25% trypsin-EDTA and cultured in a 24-well plate at a concentration of 10^5 cells/well. During the culture period, 100 ppm hydroquinone and each of the ODIs obtained in Examples 1 and 2 were added to the cells continuously during 3 days from 2 days after the start of the culture. Herein, the hydroquinone was used as a positive control group. The culture broth was collected and washed, and the cells were lysed with 1N sodium hydroxide and measured for absorbance at 400 nm.\nMelanin production inhibition (%)=100−(absorbance of each test substance/absorbance of control group×100) [Math Figure 1]"}
{"smiles": "O=c1c(-c2ccc(O)c(O)c2)coc2cc(O)ccc12", "note": "[7,3′,4′-trihydroxyisoflavone]", "values": [{"measurement": "Melanin production inhibition (%)", "value": 38.7, "unit": "%"}]}
{"smiles": "O=c1c(-c2ccc(O)c(O)c2)coc2cc(O)cc(O)c12", "note": "[7,5,3′,4′-tetrahydroxyisoflavone]", "values": [{"measurement": "Melanin production inhibition (%)", "value": 40.8, "unit": "%"}]}
{"smiles": "O=c1c(-c2ccc(O)cc2)coc2cc(O)c(O)cc12", "note": "[7,6,4′-trihydroxyisoflavone]", "values": [{"measurement": "Melanin production inhibition (%)", "value": 38.8, "unit": "%"}]}
{"smiles": "O=c1c(-c2ccc(O)cc2)coc2c(O)c(O)ccc12", "note": "[7,8,4′-trihydroxyisoflavone]", "values": [{"measurement": "Melanin production inhibition (%)", "value": 39.8, "unit": "%"}]}
{"smiles": "Oc1ccc(O)cc1", "note": "[Hydroquinone, hydroquinone, reference compound]", "values": [{"measurement": "inhibition at 100 ppm", "setting": "Mus musculus, Melanocyte", "value": 41.1, "unit": "%"}]}
